Test results taken from publication PMC11284789, “Biomimetic Analogues of the Desferrioxamine E Siderophore for PET Imaging of Invasive Aspergillosis: Targeting Properties and Species Specificity” (Journal of Medicinal Chemistry, 2024).
Read-outs that look alike come from different tables or passages of the source.

Legend:
[1] = test system: A. fumigatus mutant strain ΔsidAΔftrA; experiment: Growth promotion assay (siderophore utilization), ΔsidAΔftrA; assay type: cell-based, Aspergillus fumigatus; details: siderophores in ferri-form, 0.1, 1.0, 10 and 50 μM; 48 h at 37 °C
Procedure: (§1) In order to investigate whether A. fumigatus is able to utilize the artificial FOX analogues in the iron form as an iron source, growth promotion assays were performed (Figure 2) using two A. fumigatus mutants. The mutant strain ΔsidAΔftrA is able to grow only in the presence of utilizable siderophores or ferrous iron concentration >3 mM.[10],[44] The second mutant, ΔsidAΔftrAΔsit1, additionally lacks the siderophore transporter Sit1, which exclusively mediates the uptake of ferrioxamine-type siderophores and is additionally involved in the uptake of ferrichrome-type and coprogen-type siderophores but not of FsC or TAFC.[19],[20] For growth promotion analysis, the mutants were spotted on iron-lacking media supplemented with different concentrations of siderophores. Control experiments confirmed the expected growth pattern: growth of ΔsidAΔftrA but not of ΔsidAΔftrAΔsit1 was promoted by supplementation with ferric FOXE; both mutant strains were able to grow in the presence of TAFC as uptake of this siderophore depends on MirB but not on Sit1; both mutant strains lacked growth without siderophore supplementation, and uninoculated media also lacked fungal growth. […] The utilization of iron from all artificial ferrioxamine analogues was mediated by Sit1 like that of natural ferrioxamine-type siderophores.[20]
Figure 2 Growth promotion analysis of FOX analogues. 10^4 conidia of A. fumigatus mutant strains ΔsidAΔftrA (A) and ΔsidAΔftrAΔsit1 (B) were point-inoculated for every condition. All natural and artificial siderophores were tested in the ferri-form in the concentrations 0.1, 1.0, 10, and 50 μM. As controls, TAFC, which is taken up in a Sit1-independent manner, and FOXE were included. Moreover, controls without siderophore supplementation with (+) or without (−) inoculation of conidia were included. Greenish coloration of the fungal colonies indicates asexual sporulation. Pictures were taken after 48 h of incubation at 37 °C. […]

[2] = test system: iron-starved (Fe(−)) A. fumigatus cultures; experiment: Short-term in vitro uptake of 68Ga-labeled siderophores; assay type: cell-based, Aspergillus fumigatus; details: paired t test, p < 0.01
Procedure: To investigate the short-term active transport of ^68Ga-labeled FOXE analogues by A. fumigatus, iron-starved (Fe(−)) cultures were used (Figure 3). As a control, the same cultures were incubated with Fe(III)-FOXE beforehand to saturate and therefore block Sit1-mediated activity. A decrease in uptake upon Fe(III)-FOXE blocking underlines specific uptake by the same transporters recognizing FOXE.
Figure 3 Uptake of ^68Ga-labeled FOXE analogues by Fe(III)-FOXE-blocked and -unblocked iron-starved (Fe(−)) A. fumigatus cultures after 45 min of incubation. * indicates significant difference of blocking compared with nonblocking (mean of three independent experiments, paired t test, p < 0.01).
Uptake assays were performed in both iron-deficient and iron-sufficient A. fumigatus cultures as described previously.[55] The uptake of each [^68Ga]Ga(III)-FOXE derivative was expressed as the ratio to [^68Ga]Ga(III)-FOXE uptake from the same experiment in order to normalize uptake variations between different fungal cultures. The mean values of three different assays were used to quantitatively compare the difference in uptake between the compounds.

[3] = set-up: method as in earlier work; details: cited from earlier work; for logβ Ga(III)L: T = 25 °C, I = 0.1 M NaClO4, M:L 1:1; for pGa(III): calculated for [L] = 1 × 10−4 [M] = 1 × 10−5 at pH 7.4
[4] = cited from earlier work
[5] = test system: A. fumigatus mutant strain ΔsidAΔftrAΔsit1; experiment: Growth promotion assay (siderophore utilization), Sit1-lacking ΔsidAΔftrAΔsit1; assay type: cell-based, Aspergillus fumigatus; details: siderophores in ferri-form, 0.1, 1.0, 10 and 50 μM; 48 h at 37 °C
Procedure: as §1
Figure 2 Growth promotion analysis of FOX analogues. […]

[6] = test system: S. aureus cultures; set-up: method as in PMID 34783539; details: 68Ga-labeled, iron-deficient cultures; cited from earlier work

Compound	growth promotion of ΔsidAΔftrA [1]	difference between Fe(III)-FOXE-blocked and -unblocked uptake [2]	logβ Ga(III)L [3]	pGa(III) [3]	logβ Fe(III)L ([4]; T = 25 °C, I = 0.1 M NaClO4, M:L 1:1)	pFe(III) ([4]; calculated for [L] = 1 × 10−4 [M] = 1 × 10−5 at pH 7.4)	growth of ΔsidAΔftrAΔsit1 (Sit1 dependence) [5]	uptake (radioactivity level) in S. aureus cultures [6]	logβ Fe(III)L ([4]; ref Reference2)
O=C1CCN(O)C(=O)CCNC(=O)CCN(O)C(=O)CCNC(=O)CCN(O)C(=O)CCN1 [FOX 2–2]	very limited growth promotion only at the highest tested concentration of 50 μM	statistically insignificant	26.44(5)	21.4	25.92(8)	21.5			
O=C1CCC(=O)N(O)CCCCCNC(=O)CCC(=O)N(O)CCCCCNC(=O)CCC(=O)N(O)CCCCCN1 [FOXE, ferrioxamine E]	promoted		29.79(1)	25.2			not	high radioactivity levels	32.21(4)
triacetylfusarinine C [TAFC]	able to grow						able to grow		
